The text below walks through data of paper PMC6550523, “De Novo Emergence of Peptides That Confer Antibiotic Resistance” (mBio, 2019).

Series [1] concerns bovine cytochrome c oxidase (CytcO) reconstituted into proteoliposomes. It is filed as biochemical.
Protocol: When ionophores (valinomycin, a K^+ ionophore, and/or FCCP, a protonophore similar to CCCP) are added, this gradient is partly or fully dissipated, and the so-called uncoupled rate is reached. […] Thus, we determined the RCRs after adding the Arp-1 and Arp1-L11K peptides, and as positive controls we added valinomycin and FCCP in addition to the peptides (Fig. 4B and Fig. S4C).
(A) CytcO reduces O2 to H2O, using electrons from reduced cytochrome (cyt.) c and protons from inside the liposomes. In addition, protons are pumped and a proton electrochemical gradient (positive outside) across the membrane is established. Valinomycin, a K^+ ionophore, can dissipate the charge component and FCCP, a protonophore, both components of this gradient. (B) A typical oxygen consumption experiment; the baseline with only ascorbate, TMPD, and cyt. c was first measured. Proteoliposomes then were added, initiating oxygen consumption by CytcO and build-up of a membrane potential. The coupled rate is the slope after liposome addition subtracting the baseline. Peptides (Arp1 or L11K), valinomycin, and FCCP were added, in this order, and the rates measured. RCRs were determined by dividing the different rates by the initial coupled rate. […]
CytcO activity was measured using a Clark-type oxygen electrode (Hansatech) at 25°C. […] Oxygen consumption rates and RCRs were measured essentially as described in reference [43].
The subject of series [2] is Escherichia coli K-12 strain BW25113. The series is described as follows: MIC determination (Etest) in strains expressing the peptides. It is filed as cell-based. The note with it: for Increased aminoglycoside resistance on overexpression of endogenous E. coli peptides: TisB from a pBAD promoter, arabinose 0.0125 to 0.2%, at viable expression levels. The method, then: Most strains used in this study were derived from Escherichia coli K-12 BW25113 (designated E. coli throughout the text) and are listed in Table S1 in the supplemental material. If not indicated otherwise, Muller Hinton broth (MHB) (Becton, Dickinson) was used for growth in liquid cultures and Muller Hinton agar (MHA; MHB supplemented with 15 g/liter agar) for growth on plates. To maintain the plasmid pRD2 or pBAD18, the growth media were supplemented with 100 mg/liter ampicillin or 15 mg/liter chloramphenicol, respectively. Induction of expression was performed in the presence of 1 mM IPTG (pRD2) or 0.2% arabinose (pBAD18). For counterselection of sacB, no-salt lysogeny agar plates (10 g/liter tryptone, 5 g/liter yeast extract, 15 g/liter agar, and 50 g/liter sucrose) were used. Recovery after transformation was done in SOC medium (20 g/liter tryptone, 5 g/liter yeast extract, 0.5 g/liter NaCl, 10 mM MgCl2, […], and 4 g/liter glucose). For washing and dilution of cells, phosphate-buffered saline (PBS; 8 g/liter NaCl, 0.2 g/liter KCl, 1.44 g/liter Na2HPO4, and 0.24 g/liter KH2PO4) was used.
MICs were determined using Etest strips (bioMérieux). Overnight cultures of the strains of interest were diluted 1:20 in PBS and spread on an MHA plate containing 100 mg/liter ampicillin and 1 mM IPTG where necessary with a cotton swab. Etest strips were applied in the middle of the plates and incubated at 37°C overnight. MIC values were scored after 20 h of incubation. Colistin MICs were determined using microdilution. For this, bacteria were grown on MHA with 100 mg/liter ampicillin, and 1 to 2 colonies were dissolved in 1 ml PBS to approximately 0.5 McFarland. The cell suspension was diluted 1:100 in Muller Hinton 2 broth (cation adjusted), and 50 μl was mixed with 50 μl Muller Hinton 2 broth containing 0.4% arabinose, 30 mg/liter chloramphenicol, and a 2-fold dilution series of colistin. The assay was performed in round-bottomed 96-well plates at 37°C overnight in a stationary position. The MIC was determined as the concentration where no growth could be observed and is based on a minimum of two biological replicates. If the determined values of the replicates were not identical, a third replicate was performed.
The site saturation mutagenesis was performed with GeneArt (ThermoFisher) based on the sequence of Arp1, where each position in the wild-type sequence was replaced by the amino acids lysine (K), glutamic acid (E), proline (P), tryptophan (W), and serine (S). All variants were subcloned into our modified expression vector, pBAD18-RND, using the AgeI/HindIII cloning sites, transformed into E. coli, and delivered as a total pool glycerol stock. […] The plasmid variants were determined by Sanger sequencing (Eurofins, Germany). […]

The subject of the next series is E. coli. The series is described as follows: Toxicity of peptides when expressed. It is filed as cell-based, Escherichia coli. The note with it: expressed in E. coli from pBAD vector.
Series [3] has as its system E. coli membrane potential. Nature of the series: Membrane potential assay with DiBAC4(3). It is filed as cell-based, Escherichia coli. The following applies: 100 μM CCCP, 30 min, room temperature; positive control. On the procedure:
Bacteria were grown overnight in MHB supplemented with 15 mg/liter chloramphenicol at 37°C. The following day all cultures were diluted 1:100 in MHB supplemented with 15 mg/liter chloramphenicol and grown to an OD600 of approximately 0.3 (time point 0). At the target OD600, IPTG was added to each culture to a final concentration of 1 mM, and cells were incubated for another 60 min to allow expression of proteins (time point 1). At both time points, approximately 10^6 cells were transferred to 1 ml PBS with 10 mg/liter DiBAC4(3) (D8189; Sigma-Aldrich) with or without 100 μM carbonyl cyanide 3-chlorophenylhydrazone (CCCP; Sigma-Aldrich) and incubated for 30 min at room temperature in the dark. Fluorescence was measured with a MACSQuant VYB (Miltenyi Biotec) using the GFP/FITC (green fluorescent protein/fluorescein isothiocyanate) channel and a threshold of 15,000 gated cells. The raw data were analyzed and visualized with FlowJo (BD Bioscience).

Like-named read-outs stand apart in the source and are kept apart here.

Consider `N#CC(C#N)=NNc1ccc(OC(F)(F)F)cc1` [FCCP], for which the “Effect of ionophore added in addition to Arp1 peptide” value in series [1] was “fully collapsed the gradient”. `CC(C)[C@@H]1NC(=O)[C@H](C)OC(=O)[C@@H](C(C)C)NC(=O)[C@@H](C(C)C)OC(=O)[C@H](C(C)C)NC(=O)[C@H](C)OC(=O)[C@@H](C(C)C)NC(=O)[C@@H](C(C)C)OC(=O)[C@H](C(C)C)NC(=O)[C@H](C)OC(=O)[C@@H](C(C)C)NC(=O)[C@@H](C(C)C)OC1=O` [Valinomycin, valinomycin]: the “Effect of ionophore added in addition to Arp1 peptide” value in series [1] (valinomycin 6 μM, then FCCP 21 μM, positive controls) was “further rate increase”. As for `NC[C@H]1O[C@H](O[C@H]2[C@H](O)[C@@H](O[C@H]3O[C@H](CO)[C@@H](O)[C@H](N)[C@H]3O)[C@H](N)C[C@@H]2N)[C@H](O)[C@@H](O)[C@@H]1O` [kanamycin], the “Kanamycin MIC of the empty vector control strain” value in series [2] (E. coli BW25113 with empty vector, Etest, 37°C, 20 h) was found to be 0.75 µg/mL. “IbsC: endogenous E. coli toxin peptide similar to Arp1-3 in size and hydrophobicity (MMRLVIILIVLLLISFSAY; UniProt C1P615 1-19, looked up)”: in series [2], the “Increased aminoglycoside resistance on overexpression of endogenous E. coli peptides” value (shortened to “Increased aminoglycoside resistance”) is recorded as “no increased resistance”.

Turning to “LdrD: endogenous E. coli toxin peptide similar to Arp1-3 in size and hydrophobicity (MTFAELGMAFWHDLAAPVIAGILASMIVNWLNKRK; UniProt Q6BF25 1-35, looked up)”, the “Increased aminoglycoside resistance” value in series [2] is listed as “no increased resistance”. In the case of “TisB: endogenous E. coli K-12 29-mer toxin of a toxin-antitoxin system (MNLVDIAILILKLIVAALQLLDAVLKYLK; UniProt A5A627 1-29, looked up)”, in the series on E. coli, the Toxicity when expressed result is “lethal”. In addition, the “Increased aminoglycoside resistance” value in series [2] was “no increased resistance”.

As for “carbonyl cyanide m-chlorophenyl hydrazine [CCCP]”, the “Membrane potential, DiBAC4(3) fluorescence” value in series [3] is reported as “clear shift to higher fluorescence”.
